According to article PMC4589331, “Interactions of L-3,5,3'-Triiodothyronine, Allopregnanolone, and Ivermectin with the GABAA Receptor: Evidence for Overlapping Intersubunit Binding Modes” (PLoS ONE, 2015):

Legend:
α1β1γ2 GABAA receptor = biological target: T1, α1β1γ2 GABAA receptor (Homo sapiens, UniProt P14867+P18505+P18507); test: Two-electrode voltage-clamp recording of GABAA receptors expressed in Xenopus oocytes; assay type: cell-based
T1 construct: GeneCopoeia (γ2 cDNA); host or cells: Xenopus laevis oocytes injected with cRNAs, ratio α1:β1:γ2 1:1:2
Protocol: The cDNAs encoding human GABAA receptor α1 and β1 subunits were acquired from American Type Culture Collection (ATCC, Manassas, Virginia), while those encoding γ2 subunits were acquired from GeneCopoeia (Rockville, Maryland). Restriction enzymes for the cDNAs came from New England Biolabs (Ipswich, MA).
HindIII-digested and XholI-digested DNA templates encoding human α1, β1, or γ2 GABAA receptor subunits (4 μg) were transcribed through the mMESSAGE mMACHINE T7 kit from Ambion (Austin, TX). […] The solution was then treated with RNase-free DNase I and precipitated with lithium chloride. The cRNAs were dissolved in double-distilled diethyl-pyrocarbonate (DEPC) treated water to a final concentration of ~ 1–2 μg/ μL. Subunit combinations were aliquoted for the specific receptor type with total concentration remaining ~ 1–2 μg/ μL.
(§1) X. laevis were anesthetized by placing them in solution of 1 g tricaine methanesulfonate (MS222) per 500 mL in de-chlorinated water. A small incision in the abdomen was made 1 cm away from and parallel to the midline and lobes of ovary were removed. The lobes were gently agitated at room temperature with collagenase (2 mg/mL) in calcium free OR-2 (82.5 mM NaCl, 2.5 mM KCl, 1 mM MgCl2, 5 mM HEPES, pH adjusted to 7.6 with NaOH) until the ovarian epithelium and the follicular cell layer were removed (~2 hrs). Oocytes were checked for proper size and shape, color, and for the presence of distinct animal and vegetal poles. Viable oocytes were placed in ND96 solution (96 mM NaCl, 2mM KCl, 1 mM MgCl2, 1 mM CaCl2, 5 mM HEPES, pH adjusted to 7.6 with NaOH) and the oocytes were injected with 46 nL cRNAs (1–2 μg/μL) expressing the α1β1γ2 construct using a digital microdispenser (Drummond ‘Nanoject II’), with the ratio α1: β1: γ2 1:1:2. […] Injected oocytes were incubated at 18°C in a sterile solution containing Leibovitz L-15 Medium supplemented with 10 mM HEPES, 50 mg/L gentamicin and 50 mg/L tetracycline at pH 7.4.
After 24 h following injections, oocytes were placed in a recording chamber perfused continuously with ND96. All drugs were perfused into the chamber through a gravity flow system (~5 mL/min). Oocytes were impaled with two 3 M KCl-filled glass microelectrodes (~ 1–2 MΩ). Oocytes were then voltage-clamped at -60 mV with a Model OC-725C Oocyte Clamp (Warner Instruments, Hamden, CT). Currents were recorded using the iWorx LabScribe v1.959 software. The peak amplitudes of the responses were used for data analysis.
Oocytes were perfused with ND96 between trials until current returned to baseline (approximately 10–15 minutes).
Graph Pad Prism, version 5.00 (La Jolla, CA), was used for all statistical analysis of two-electrode voltage-clamp data and for fitting the curves by nonlinear regression for determinations of EC50/IC50, min and max response values, and Hill coefficients. To determine the type of competition, a Schild plot analysis was applied to the competitive binding data, utilizing a linear regression fit.

uninjected oocytes = test: Two-electrode voltage-clamp recording of uninjected oocytes; assay type: cell-based, Xenopus laevis; details: data not shown
Protocol: as §1
After 24 h following injections, oocytes were placed in a recording chamber perfused continuously with ND96. All drugs were perfused into the chamber through a gravity flow system (~5 mL/min). […] Currents were recorded using the iWorx LabScribe v1.959 software. […]

T1 sequence (P14867 28-456): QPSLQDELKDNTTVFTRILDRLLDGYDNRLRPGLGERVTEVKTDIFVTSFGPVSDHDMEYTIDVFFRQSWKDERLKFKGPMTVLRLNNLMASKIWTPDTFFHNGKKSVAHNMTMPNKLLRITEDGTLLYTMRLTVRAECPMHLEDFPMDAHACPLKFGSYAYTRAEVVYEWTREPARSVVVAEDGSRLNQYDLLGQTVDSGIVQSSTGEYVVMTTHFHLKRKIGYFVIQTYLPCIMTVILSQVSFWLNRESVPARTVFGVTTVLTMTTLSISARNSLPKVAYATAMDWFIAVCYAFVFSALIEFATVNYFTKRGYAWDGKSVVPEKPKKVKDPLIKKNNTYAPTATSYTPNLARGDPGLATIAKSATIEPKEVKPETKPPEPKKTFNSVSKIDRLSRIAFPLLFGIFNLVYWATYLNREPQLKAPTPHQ
T1 sequence (P18505 26-474): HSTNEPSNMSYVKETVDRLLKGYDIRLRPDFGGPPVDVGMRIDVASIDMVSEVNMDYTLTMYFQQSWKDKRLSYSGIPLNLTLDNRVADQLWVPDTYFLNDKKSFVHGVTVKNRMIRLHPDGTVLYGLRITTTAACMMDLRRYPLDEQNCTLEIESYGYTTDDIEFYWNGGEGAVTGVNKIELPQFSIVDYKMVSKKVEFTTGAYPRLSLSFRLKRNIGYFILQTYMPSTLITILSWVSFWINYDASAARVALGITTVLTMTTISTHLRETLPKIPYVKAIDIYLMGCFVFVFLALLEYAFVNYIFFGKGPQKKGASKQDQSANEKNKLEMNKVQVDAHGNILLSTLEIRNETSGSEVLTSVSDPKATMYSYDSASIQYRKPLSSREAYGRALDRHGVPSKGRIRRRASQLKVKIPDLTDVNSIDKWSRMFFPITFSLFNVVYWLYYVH
T1 sequence (P18507 40-475): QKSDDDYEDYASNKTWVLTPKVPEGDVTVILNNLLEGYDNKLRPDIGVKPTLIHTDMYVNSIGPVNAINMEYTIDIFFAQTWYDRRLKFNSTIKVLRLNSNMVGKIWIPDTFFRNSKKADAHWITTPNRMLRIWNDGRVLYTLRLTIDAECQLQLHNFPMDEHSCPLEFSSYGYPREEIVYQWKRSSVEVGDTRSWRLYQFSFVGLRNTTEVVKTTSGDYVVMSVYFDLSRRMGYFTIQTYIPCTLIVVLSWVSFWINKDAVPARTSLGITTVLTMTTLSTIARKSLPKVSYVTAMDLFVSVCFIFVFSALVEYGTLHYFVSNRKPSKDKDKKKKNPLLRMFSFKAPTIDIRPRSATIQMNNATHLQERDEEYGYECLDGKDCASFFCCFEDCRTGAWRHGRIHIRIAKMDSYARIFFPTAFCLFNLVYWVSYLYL

Q: How did the EC50 (α1β1γ2 GABAA receptor) turn out when `CC(=O)[C@H]1CC[C@H]2[C@@H]3CC[C@H]4C[C@H](O)CC[C@]4(C)[C@H]3CC[C@]12C` [ALLOP, 3α-hydroxy-5α-pregnan-20-one] was run?
A: 0.9 ± 0.1 µM

Q: How did the “effect of IVM on uninjected oocytes” value (uninjected oocytes) turn out when `CCC(C)C1OC2(CCC1C)CC1CC(CC=C(C)C(OC3CC(OC)C(OC4CC(OC)C(O)C(C)O4)C(C)O3)C(C)C=CC=C3COC4C(O)C(C)=CC(C(=O)O1)C34O)O2` (stereo not drawn) [IVM, ivermectin] was run?
A: unaffected

Q: And the EC50 (α1β1γ2 GABAA receptor)?
A: 7.1 ± 0.8 µM

Q: And the “Hill coefficient of activation by IVM” value (α1β1γ2 GABAA receptor; absence of GABA)?
A: 1.9 ± 0.4

Q: And the “concentration of apparent maximal effect of IVM” value (α1β1γ2 GABAA receptor; absence of GABA)?
A: 20 to 50 µM

Q: `CN1C(=O)CN=C(c2ccccc2)c2cc(Cl)ccc21` [diazepam] was tested. Which “effect on GABA response (check of γ subunit incorporation)” value (α1β1γ2 GABAA receptor; oocytes injected with α1:β1:γ2 1:1:2) did it give?
A: potentiation
